Measurements from patent US20260284186A1, “[…] MODIFIERS FOR THE TREATMENT OF SUBJECTS WITH UNDER[…] SYSTEMS AND COMPOSITIONS THEREOF” (priority 2023, published 2026).

What was measured:
SARS and IAV = type: in vivo; settings: BRM without antigen
multiple viruses = assay: In vitro stimulation of cells with CDA or CDA/HBcAg, IFN induction and virus elimination, Example 14; type: cell-based
SARS-COV-2 RBD = assay: Anti-RBD IgG response, CDA dose escalation, Example 13; type: in vivo, Balb/c mice
RBD-ACE2 interaction = assay: ACE2-binding inhibitory activity of the induced antibodies; type: in vivo, Balb/c mice; settings: sera after three administrations; FIG. 3
Description: FIG. 3. Inhibitory activity of the antibody response induced by the groups with the strongest anti-RBD response after three administrations, following the immunization schedule described in example 1. A) G2; B) G4; C) G6; D) G11; E) G12 and F) Monoclonal antibody (McAb) CBSSRBD-S.8 used as standard curve to plot the results in the five ELISA plates.
Thus, we studied the antibody response effect on the ACE2-binding inhibitory activity.
The resulting antibody response is capable of inhibiting the binding of the antigen to their cellular receptor ACE2, a process that resembles the interaction of the virus to their cellular receptor. This inhibitory effect is essential to ensure the strong antiviral effect of the immune response against an infectious agent/virus through the specific neutralizing activity. […] This functional aspect of the antibody response is linked to the increased quality of the same response in terms of avidity. […] The quality of the experiment was ensured with the use of a McAb in the standard curve of the five plates used in the study and the reproducibility of the inhibitory effect (FIG. 3F) as well as with the assessment of the ACE2 inhibitory binding in a group that received the placebo of CDA but no antigen ([…]).

SMILES: Nc1ncnc2c1ncn2[C@@H]1O[C@@H]2COP(=O)(O)O[C@H]3[C@@H](O)[C@H](n4cnc5c(N)ncnc54)O[C@@H]3COP(=O)(O)O[C@H]2[C@H]1O [CDA, cyclic bis(3′-5′) diadenylic acid]
- Antibody response against the viral antigens after in vivo treatment (SARS and IAV): high avidity antibody response
- Viral titers of SARS and IAV (SARS and IAV; acutely infected subjects and in vitro infected & treated cells, before or after infection): quantitative reduction of the viral titers
- Stimulatory effects and type I / type 2 IFN induction (multiple viruses; in vitro stimulation of cells, synergy in vivo): enhancement of different channels of stimulatory effects
- Elimination of viruses in vitro (multiple viruses; multiple viruses): in vitro elimination of multiple viruses
- Dose of CDA inducing the strongest immune response (SARS-COV-2 RBD; RBD at 50 μg dose (1 mg/mL)): 5 µg
- Optimal dose of CDA per mice (SARS-COV-2 RBD; with 12.5 μg of RBD): 10 µg
- Inhibitory effect on RBD-ACE2 binding (RBD-ACE2 interaction): strong inhibitory effect
